Reference: patent US20200108070A2, “INHIBITORS OF FIBROBLAST GROWTH FACTOR RECEPTOR AND USE THEREOF” (Nanjing TransThera Biosciences Co. Ltd., priority 2016, published 2020)
Values belong to the compound of their own block, whether it stands above or below them.

What was measured:
[1] = biological target: FGFR4 (Homo sapiens, UniProt P22455); assay: Enzymatic activity test (LabChip EZ Reader II / Caliper), FGFR4; assay type: biochemical; conditions: FGFR4(h), FAM-labelled polypeptide substrate and ATP, 30 min incubation; read-out: Inhibitory activity against FGFR (IC50) FGFR4
Experimental: (§1) Experimental Example 1: Enzymatic Activity Test of the Compounds of the Present Invention
(§2) Test substance: The compounds of the present invention, the structures of which are shown above.
(§3) Test Instrument: The LabChip EZ Reader II drug screening platform.
(§4) 1. Preparation for compound plate a) 96-well plates, 10 dose groups, 3-fold serial dilutions, added DMSO to each well, maximal concentration of 500 μM. b) 384-well plates, diluted with 1× kinase buffer (50 mM HEPES, pH 7.5; 0.0015% Brij-35; 2 mM DTT), each well containing 5× compound dissolved in 5 μL of 10% DMSO. The negative control well was 5 μL of 1× kinase buffer containing 10% DMSO. 2. Experimental procedure
(§5) […] in 1× kinase buffer were reacted with 2.5× enzyme solution at room temperature for 10 min, and then the FAM-labelled polypeptide substrate and ATP were added to initiate reaction. After incubation for 30 min, 25 μL of terminal solution (100 mM HEPES, pH 7.5; 0.015% Brij-35; 0.2% Coating Reagent #3; 50 mM EDTA) was added to terminate the reaction, and the final data were read by Caliper.

[2] = biological target: FGFR1 (Homo sapiens, UniProt P11362); assay: Enzymatic activity test (LabChip EZ Reader II / Caliper), FGFR1; assay type: biochemical; conditions: FGFR1(h), FAM-labelled polypeptide substrate and ATP, 30 min incubation; read-out: Inhibitory activity against FGFR (IC50) FGFR1
Experimental: as §1, §2, §3, §4, §5

[3] = test system: Hep3B; assay: Cellular activity test (Cell titer-Glo), Hep3B; assay type: cell-based; conditions: Homo sapiens, hepatocellular carcinoma cell with abnormal FGFR, 72 h, read-out: Inhibitory activity against cells (IC50) Hep3B
Source text: (§6) Experimental Example 2: Celluar Activity Test of the Compounds of the Present Invention
(§7) Hep3B is a cell with abnormal FGFR in hepatocellular carcinoma RT112/84 is a cell with abnormal FGFR in bladder cancer DMS114 is a cell with abnormal FGFR in small cell lung cancer AN3CA is a cell with abnormal FGFR in endometrial cancer SNU-16 is a cell with abnormal FGFR in gastric cancer
as §2
(§8) Test instrument: The Espire multi-function microplate reader.
(§9) Each cell line was seeded into a 96-well plate, and adherent cultured overnight. Then, the compounds at different concentrations (12 dose groups, 3× DMSO serial dilutions) were added to a final concentration of 0.17-30000 nM, with the final content of DMSO of 5‰. The negative control well was medium containing 5‰ DMSO. After incubation at 37° C., 5% CO2, 95% humidity for 72 h, the cultures would be test. 30 μL of Cell titer-Glo reagent was added to each well and incubated for 30 min at room temperature. The final data were read by Espire microplate reader.

[4] = test system: AN3CA; assay: Cellular activity test (Cell titer-Glo), AN3CA; assay type: cell-based; conditions: Homo sapiens, AN3-CA, endometrial cancer cell with abnormal FGFR, 72 h, read-out: Inhibitory activity against cells (IC50) AN3CA
Source text: as §6, §7, §2, §8, §9

[5] = test system: RT112/84; assay: Cellular activity test (Cell titer-Glo), RT112/84; assay type: cell-based; conditions: Homo sapiens, RT112/84, bladder cancer cell with abnormal FGFR, 72 h, read-out: Inhibitory activity against cells (IC50) RT112/84
Source text: as §6, §7, §2, §8, §9

[6] = test system: DMS114; assay: Cellular activity test (Cell titer-Glo), DMS114; assay type: cell-based; conditions: Homo sapiens, DMS-114, DMS114, small cell lung cancer cell with abnormal FGFR, 72 h, read-out: Inhibitory activity against cells (IC50) DMS114
Source text: as §6, §7, §2, §8, §9

[7] = biological target: FGFR3 (Homo sapiens, UniProt P22607); assay: Enzymatic activity test (LabChip EZ Reader II / Caliper), FGFR3; assay type: biochemical; conditions: FGFR3(h), FAM-labelled polypeptide substrate and ATP, 30 min incubation; read-out: Inhibitory activity against FGFR (IC50) FGFR3
Experimental: as §1, §2, §3, §4, §5

[8] = biological target: FGFR2 (Homo sapiens, UniProt P21802); assay: Enzymatic activity test (LabChip EZ Reader II / Caliper), FGFR2; assay type: biochemical; conditions: FGFR2(h), FAM-labelled polypeptide substrate and ATP, 30 min incubation; read-out: Inhibitory activity against FGFR (IC50) FGFR2
Experimental: as §1, §2, §3, §4, §5

FGFR4, sequence (P22455 22-802): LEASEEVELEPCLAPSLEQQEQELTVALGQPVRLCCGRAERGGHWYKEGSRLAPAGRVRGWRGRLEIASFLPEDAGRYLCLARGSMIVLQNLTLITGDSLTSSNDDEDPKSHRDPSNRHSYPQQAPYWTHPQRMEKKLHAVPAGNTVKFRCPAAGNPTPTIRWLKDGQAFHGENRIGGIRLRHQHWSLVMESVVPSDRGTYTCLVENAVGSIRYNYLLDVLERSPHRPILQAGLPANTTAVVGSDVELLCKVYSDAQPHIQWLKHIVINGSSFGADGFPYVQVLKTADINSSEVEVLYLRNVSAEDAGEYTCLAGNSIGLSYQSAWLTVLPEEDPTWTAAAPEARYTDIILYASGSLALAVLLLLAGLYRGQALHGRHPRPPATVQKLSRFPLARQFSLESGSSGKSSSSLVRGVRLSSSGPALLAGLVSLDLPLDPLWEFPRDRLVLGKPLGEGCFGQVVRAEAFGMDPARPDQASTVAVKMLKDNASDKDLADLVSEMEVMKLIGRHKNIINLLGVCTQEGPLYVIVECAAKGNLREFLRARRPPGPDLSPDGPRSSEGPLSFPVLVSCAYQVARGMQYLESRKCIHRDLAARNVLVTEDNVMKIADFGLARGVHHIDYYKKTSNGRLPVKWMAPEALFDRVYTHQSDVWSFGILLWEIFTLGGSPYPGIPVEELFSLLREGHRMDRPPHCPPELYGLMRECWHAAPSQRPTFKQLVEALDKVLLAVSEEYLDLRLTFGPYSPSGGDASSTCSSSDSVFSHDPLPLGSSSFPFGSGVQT
FGFR1, sequence (P11362 22-822): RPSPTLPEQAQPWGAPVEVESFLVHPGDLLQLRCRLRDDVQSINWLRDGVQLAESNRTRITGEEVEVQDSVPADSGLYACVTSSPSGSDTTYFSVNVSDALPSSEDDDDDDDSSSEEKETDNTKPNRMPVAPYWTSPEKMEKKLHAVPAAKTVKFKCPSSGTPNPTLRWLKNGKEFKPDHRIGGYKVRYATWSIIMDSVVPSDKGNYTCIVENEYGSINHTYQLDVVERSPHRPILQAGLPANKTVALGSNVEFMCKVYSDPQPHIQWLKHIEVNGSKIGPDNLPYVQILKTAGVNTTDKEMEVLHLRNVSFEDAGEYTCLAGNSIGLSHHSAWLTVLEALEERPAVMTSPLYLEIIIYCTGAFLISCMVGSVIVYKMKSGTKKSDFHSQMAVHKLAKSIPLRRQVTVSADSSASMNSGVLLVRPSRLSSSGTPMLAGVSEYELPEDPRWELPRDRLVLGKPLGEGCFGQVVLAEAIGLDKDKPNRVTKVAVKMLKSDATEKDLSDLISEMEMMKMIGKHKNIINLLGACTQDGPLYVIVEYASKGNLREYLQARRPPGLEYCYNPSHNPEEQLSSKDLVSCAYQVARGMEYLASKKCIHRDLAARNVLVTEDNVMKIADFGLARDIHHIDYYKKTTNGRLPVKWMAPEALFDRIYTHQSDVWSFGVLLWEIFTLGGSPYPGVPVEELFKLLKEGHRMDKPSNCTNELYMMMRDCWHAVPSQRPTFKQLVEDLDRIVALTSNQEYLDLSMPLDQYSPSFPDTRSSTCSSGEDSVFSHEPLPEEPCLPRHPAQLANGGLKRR
FGFR2, sequence (P21802 22-821): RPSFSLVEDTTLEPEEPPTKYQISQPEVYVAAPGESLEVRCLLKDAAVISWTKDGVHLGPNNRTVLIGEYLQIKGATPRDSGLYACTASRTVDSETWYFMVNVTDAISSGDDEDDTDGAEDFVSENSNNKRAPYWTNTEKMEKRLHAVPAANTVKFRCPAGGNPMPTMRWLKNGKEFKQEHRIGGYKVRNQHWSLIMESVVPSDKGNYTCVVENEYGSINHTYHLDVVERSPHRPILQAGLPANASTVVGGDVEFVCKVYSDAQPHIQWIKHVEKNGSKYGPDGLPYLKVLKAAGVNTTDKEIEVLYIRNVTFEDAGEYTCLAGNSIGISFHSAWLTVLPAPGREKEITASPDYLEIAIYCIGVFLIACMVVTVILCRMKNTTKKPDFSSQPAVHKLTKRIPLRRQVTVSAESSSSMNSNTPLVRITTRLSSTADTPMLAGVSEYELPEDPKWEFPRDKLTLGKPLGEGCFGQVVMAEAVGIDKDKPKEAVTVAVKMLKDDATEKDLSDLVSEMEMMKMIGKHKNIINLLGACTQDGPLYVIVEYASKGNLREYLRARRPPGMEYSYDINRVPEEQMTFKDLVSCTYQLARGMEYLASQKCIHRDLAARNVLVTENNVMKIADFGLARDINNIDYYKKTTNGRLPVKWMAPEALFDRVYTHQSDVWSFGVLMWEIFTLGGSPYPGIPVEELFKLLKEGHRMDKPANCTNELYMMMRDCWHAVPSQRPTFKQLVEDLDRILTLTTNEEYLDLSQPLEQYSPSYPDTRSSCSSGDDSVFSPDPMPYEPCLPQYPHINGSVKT
FGFR3, sequence (P22607 23-806): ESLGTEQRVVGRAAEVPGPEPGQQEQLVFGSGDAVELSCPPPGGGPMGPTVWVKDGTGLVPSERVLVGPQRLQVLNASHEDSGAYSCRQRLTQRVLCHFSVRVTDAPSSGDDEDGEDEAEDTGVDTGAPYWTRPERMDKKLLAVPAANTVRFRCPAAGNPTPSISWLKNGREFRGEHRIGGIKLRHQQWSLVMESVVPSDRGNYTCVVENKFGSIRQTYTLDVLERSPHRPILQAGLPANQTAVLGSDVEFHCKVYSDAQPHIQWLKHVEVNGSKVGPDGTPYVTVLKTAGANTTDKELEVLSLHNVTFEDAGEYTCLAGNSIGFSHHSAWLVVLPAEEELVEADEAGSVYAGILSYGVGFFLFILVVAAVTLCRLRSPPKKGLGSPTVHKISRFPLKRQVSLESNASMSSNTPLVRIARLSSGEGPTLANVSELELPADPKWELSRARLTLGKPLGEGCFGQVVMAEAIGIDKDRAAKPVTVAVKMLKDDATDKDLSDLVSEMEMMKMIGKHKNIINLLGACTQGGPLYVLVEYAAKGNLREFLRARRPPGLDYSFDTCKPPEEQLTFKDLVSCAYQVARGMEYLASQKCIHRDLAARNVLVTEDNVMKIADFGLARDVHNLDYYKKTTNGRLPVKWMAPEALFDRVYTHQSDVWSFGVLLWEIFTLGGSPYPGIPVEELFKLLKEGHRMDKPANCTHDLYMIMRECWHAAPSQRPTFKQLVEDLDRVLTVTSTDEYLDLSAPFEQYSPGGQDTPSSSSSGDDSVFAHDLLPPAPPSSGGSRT

IC50 [1]: 198 nM | IC50 [2]: 21 nM
SMILES: C=CC(=O)N1C[C@@H]2C[C@H]1[C@@H]2Nc1ncc2cc(-c3c(Cl)c(OC)cc(OC)c3Cl)ccc2n1 (relative stereo) [Compound 11, 1-(trans-5-((6-(2,6-dichloro-3,5-dimethoxyphenyl)quinazolin-2-yl)amino)-2-azabicyclo[2.1.1]hexane-2-yl)prop-2-en-1-one]

IC50 [1]: 318 nM | IC50 [2]: 15 nM
SMILES: C=CC(=O)N1C[C@@H](Nc2ncc3cc(-c4c(Cl)c(OC)cc(OC)c4Cl)ccc3n2)C2(CC2)C1 (stereo in doubt) [Compound 66]

IC50 [1]: 153 nM
SMILES: C=CC(=O)N1CCCC(Nc2ncc3cc(-c4c(Cl)c(OC)cc(OC)c4Cl)ccc3n2)C1 (stereo not shown) [Compound 1]

IC50 [1]: 780 nM | IC50 [7]: 18 nM | IC50 [2]: < 3 nM
SMILES: C=CC(=O)N1CC[C@@H](Nc2ncc3cc(-c4c(Cl)c(OC)cc(OC)c4Cl)ccc3n2)C1 [Compound 6, (R)-1-(3-((6-(2,6-dichloro-3,5-dimethoxyphenyl)quinazolin-2-yl)amino)pyrrolidin-1-yl)prop-2-en-1-one]

IC50 [1]: 301 nM | IC50 [7]: 8 nM | IC50 [2]: < 3 nM
SMILES: C=CC(=O)N1CC(Nc2ncc3cc(-c4c(Cl)c(OC)cc(OC)c4Cl)ccc3n2)C1 [Compound 9]

IC50 [1]: 177 nM | IC50 [7]: 7 nM | IC50 [2]: < 3 nM
SMILES: C=CC(=O)N1CCC(Nc2ncc3cc(-c4c(Cl)c(OC)cc(OC)c4Cl)ccc3n2)CC1 [Compound 10, 1-(4-((6-(2,6-dichloro-3,5-dimethoxyphenyl)quinazolin-2-yl)amino)piperidin-1-yl)prop-2-en-1-one]

IC50 [1]: 330 nM | IC50 [2]: 8 nM
SMILES: C=CC(=O)N1C[C@@H](Nc2ncc3cc(-c4c(Cl)c(OC)cc(OC)c4Cl)ccc3n2)C[C@H]1C [Compound 21, 1-((2R,4S)-4-((6-(2,6-dichloro-3,5-dimethoxyphenyl)quinazolin-2-yl)amino)-2-methylpyrrolidin-1-yl)propyl-2-en-1-one]
IC50 [4]: 176 nM | IC50 [5]: 54 nM

IC50 [1]: 657 nM | IC50 [2]: 9 nM
SMILES: C=CC(=O)N1C[C@@H](Nc2ncc3cc(-c4c(Cl)c(OC)cc(OC)c4Cl)ccc3n2)C[C@H]1C(=O)N(C)C [Compound 30, (2S,4S)-1-acryloyl-4-((6-(2,6-dichloro-3,5-dimethoxyphenyl)quinazolin-2-yl)amino)-N,N-dimethylpyrrolidin-2-carboxamide]
IC50 [3]: 77.5 nM | IC50 [5]: 117 nM

IC50 [1]: 317 nM | IC50 [2]: 8.9 nM
SMILES: C=CC(=O)N1C[C@@H](Nc2ncc3cc(-c4c(Cl)c(OC)cc(OC)c4Cl)ccc3n2)C[C@H]1C(=O)NC [Compound 37]

IC50 [2]: 7 nM
SMILES: C=CC(=O)N1C[C@H](Nc2ncc3cc(-c4c(Cl)c(OC)cc(OC)c4Cl)ccc3n2)[C@@H](C)C1 [Compound 41]

IC50 [7]: 22 nM | IC50 [2]: 5.8 nM | IC50 [8]: 8.2 nM
SMILES: C=CC(=O)N1C[C@H](O)[C@H](Nc2ncc3cc(-c4c(Cl)c(OC)cc(OC)c4Cl)ccc3n2)C1 [Compound 46]

IC50 [1]: 268 nM | IC50 [2]: 6 nM
SMILES: C=CC(=O)N1CCC(Nc2ncc3cc(-c4c(Cl)c(OC)cc(OC)c4Cl)ccc3n2)C(C)C1 (stereo not shown) [Compound 61]

IC50 [1]: 196 nM | IC50 [2]: < 3 nM
SMILES: CC#CC(=O)N1CCC(Nc2ncc3cc(-c4c(Cl)c(OC)cc(OC)c4Cl)ccc3n2)CC1 [Compound 63]

IC50 [1]: 129 nM | IC50 [2]: 8 nM | IC50 [8]: 56 nM
SMILES: C=CC(=O)N1CC(Nc2ncc3cc(-c4c(Cl)c(OC)cc(OC)c4Cl)ccc3n2)c2ccccc21 (stereo not shown) [Compound 67]

More lines, now with the values behind:

SMILES: C=CC(=O)N1C[C@@H](Nc2ncc3cc(-c4c(Cl)c(OC)cc(OC)c4Cl)ccc3n2)C[C@H]1C(C)(C)O (stereo in doubt) [Compound 31, 1-((2R,4R)-4-((6-(2,6-dichloro-3,5-dimethoxyphenyl)quinazolin-2-yl)amino)-2-(2-hydroxypropyl-2-yl)pyrrolidin-1-yl)prop-2-en-1-one]
IC50 [3]: 46 nM | IC50 [4]: 117 nM | IC50 [1]: 103 nM | IC50 [2]: 3.7 nM | IC50 [5]: 70 nM | IC50 [6]: 25 nM

SMILES: C=CC(=O)N1C[C@@H](Nc2ncc3cc(-c4c(Cl)c(OC)cc(OC)c4Cl)ccc3n2)C[C@H]1CC#N [Compound 27, 2-((2S,4S)-1-acryloyl-4-((6-(2,6-dichloro-3,5-dimethoxyphenyl)quinazolin-2-yl)amino)pyrrolidin-2-yl)acetonitrile]
IC50 [3]: 82 nM | IC50 [1]: 261 nM | IC50 [2]: 18 nM | IC50 [5]: 127 nM | IC50 [6]: 72 nM

SMILES: C=CC(=O)N1C[C@@H](Nc2ncc3cc(-c4c(Cl)c(OC)cc(OC)c4Cl)ccc3n2)C[C@H]1CNC(C)=O [Compound 32, N-(((2S,4S)-1-acryloyl-4-((6-(2,6-dichloro-3,5-dimethoxyphenyl)quinazolin-2-yl)amino)pyrrolidin-2-yl)methyl)acetamide]
IC50 [3]: 147 nM | IC50 [4]: 167 nM | IC50 [5]: 78 nM | IC50 [6]: 48 nM

SMILES: C=CC(=O)N1C[C@@H](Nc2ncc3cc(-c4c(Cl)c(OC)cc(OC)c4Cl)ccc3n2)C[C@H]1CNS(C)(=O)=O [Compound 33, N-(((2S,4S)-1-acryloyl-4-((6-(2,6-dichloro-3,5-dimethoxyphenyl)quinazolin-2-yl)amino)pyrrolidin-2-yl)methyl)methanesulfonamide]
IC50 [3]: 75.4 nM | IC50 [4]: 149 nM | IC50 [5]: 65 nM | IC50 [6]: 34 nM

SMILES: C=CC(=O)N1C[C@@H](Nc2ncc3cc(-c4c(Cl)c(OC)cc(OC)c4Cl)ccc3n2)C[C@H]1C(=O)N1CCC1 [Compound 35, 1-((2S,4S)-2-(azetidine-1-carbonyl)-4-((6-(2,6-dichloro-3,5-dimethoxyphenyl)quinazolin-2-yl)amino)pyrrolidin-1-yl)prop-2-en-1-one]
IC50 [3]: 95 nM | IC50 [4]: 112 nM | IC50 [5]: 60 nM | IC50 [6]: 52 nM

SMILES: C=CC(=O)N1C[C@@H](Nc2ncc3cc(-c4c(Cl)c(OC)cc(OC)c4Cl)ccc3n2)C[C@H]1C(=O)OCC [Compound 36, ethyl(2S,4S)-1-acryloyl-4-((6-(2,6-dichloro-3,5-dimethoxyphenyl)quinazolin-2-yl)amino)pyrrolidin-2-carboxylate]
IC50 [3]: 70.7 nM

SMILES: C=CC(=O)N1C[C@@H](O)[C@H](Nc2ncc3cc(-c4c(Cl)c(OC)cc(OC)c4Cl)ccc3n2)C1 [Compound 39]
IC50 [1]: 318 nM | IC50 [2]: < 3 nM

SMILES: C=CC(=O)N1C[C@@H](CC)[C@H](Nc2ncc3cc(-c4c(Cl)c(OC)cc(OC)c4Cl)ccc3n2)C1 [Compound 48]
IC50 [7]: 75 nM | IC50 [2]: 17 nM | IC50 [8]: 25 nM

SMILES: C=CC(=O)N1C[C@@H](Nc2ncc3cc(-c4c(Cl)c(OC)cc(OC)c4Cl)ccc3n2)C[C@H]1COC [Compound 53, 1-((2S,4S)-4-((6-(2,6-dichloro-3,5-dimethoxyphenyl)quinazolin-2-yl)amino)-2-(methoxymethyl)pyrrolidin-1-yl)prop-2-en-1-one]
IC50 [5]: 97 nM | IC50 [6]: 82 nM

SMILES: C=CC(=O)N1C[C@@H](Nc2ncc3cc(-c4c(Cl)c(OC)cc(OC)c4Cl)ccc3n2)C[C@H]1C(=O)N1CCCC1 [Compound 55, 1-((2S,4S)-4-((6-(2,6-dichloro-3,5-dimethoxyphenyl)quinazolin-2-yl)amino)-2-(pyrrolidin-1-carbonyl)pyrrolidin-1-yl)prop-2-en-1-one]
IC50 [4]: 66 nM | IC50 [5]: 54 nM | IC50 [6]: 21 nM

SMILES: CC#CC(=O)N1CCC[C@H](Nc2ncc3cc(-c4c(Cl)c(OC)cc(OC)c4Cl)ccc3n2)C1 [Compound 62]
IC50 [2]: 7 nM
